Experimental findings from ChEMBL document CHEMBL1201862, “PubChem BioAssay data set” (2004) are described below.

Each structure is given as a SMILES string.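 How tested: cells in 96-well plates exposed to compound for 48 hours at five concentrations. Here, GI50 denotes the concentration required for 50% inhibition of growth.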 Calls of active or inactive are those of the source. Rule as the data show it: active = GI50 up to about 1.1 µM and inactive = higher.

Some test systems named below: DLD-1; DMS-114; DMS-273; KM-20L2; LXFL 529; M19-MEL; RXF 631; SNB-78; XF498.
Holding throughout (test): NCI anticancer screen, dose series, 48 h

Turning to `O=C(CCc1nnc(S)[nH]1)NC12CC3CC(CC(C3)C1)C2`, the GI50 with DLD-1, with DMS-114, in the test on DMS-273, in the test on KM-20L2, in the test with LXFL 529 and in the test with M19-MEL was > 100 µM (inactive) in each case. Further, the GI50 in the test with RXF 631, in the test on SNB-78 and in the test with XF498 was > 100 µM (inactive) throughout.

`N#CCCN(CCC#N)c1ccc(/C=N\c2ccc(F)cc2)cc1`: the GI50 in the test with DLD-1 was 0.347 µM (active); in the test with DMS-114 it was 13.8 µM (inactive); in the test on DMS-273 it was 4.61 µM (inactive); in the test on KM-20L2, 0.152 µM (active); in the test with LXFL 529, 0.121 µM (active); in the test with M19-MEL, 1.63 µM (inactive). The GI50 in the test with RXF 631 was > 45.8 µM (inactive); with SNB-78, > 100 µM (inactive); in the test with XF498, > 100 µM (inactive).

Regarding `CN(C)C(=N/O)/C(=N\O)N(C)C`, the GI50 in the test with DLD-1, with DMS-114, with DMS-273, in the test with KM-20L2, in the test with LXFL 529 and in the test on M19-MEL was > 100 µM (inactive) throughout. Further, the GI50 in the test with RXF 631, in the test with SNB-78 and with XF498 was > 100 µM (inactive) in each case.

Consider `O=CCCCC(Sc1ccccc1)Sc1ccccc1`, for which the GI50 is 15.3 µM (inactive) in the test with DLD-1; 23.9 µM (inactive) with DMS-114; 17.3 µM (inactive) in the test with DMS-273; 39.5 µM (inactive) in the test with KM-20L2; 13 µM (inactive) with LXFL 529; 18.1 µM (inactive) with M19-MEL. In addition, the values for the GI50 in the test with RXF 631, with SNB-78 and in the test with XF498 were 20.6 µM (inactive), 15.3 µM (inactive) and 19 µM (inactive), respectively.

In the case of `CCC1(O)C(=O)OCc2c1cc1n(c2=O)Cc2cc3ccc(C=O)cc3nc2-1` (stereo not given), the GI50 with DLD-1 is 12.4 µM (inactive); with DMS-114, 0.607 µM (active); in the test on DMS-273, 0.484 µM (active); in the test with KM-20L2 it was 5.68 µM (inactive); in the test with LXFL 529, 12.8 µM (inactive); in the test with M19-MEL, 2.89 µM (inactive). The GI50 is 2.38 µM (inactive) in the test with RXF 631, 19.9 µM (inactive) with SNB-78 and 2.7 µM (inactive) with XF498.
